According to US9260481B2, “Peptide derivatives as antibiotics” (priority 2011, dated 2016):
≈ marks a conversion by molar mass, not a printed value. Where two headings read alike, the source gives them in different places. Numbered stars: 1 amine (or outer) side, 2 acyl side, 3 side chain; on linkers, the order of the positions; unused ones are H or OH. Square brackets hold non-standard residues; d marks the D form. Peptide text beside a SMILES is read from it. * marks the point of attachment. ξ: configuration not given here. X1 = NCC(O)CCC(N[*:1])C(=O)[*:2]; ΔZArg = N=C(N)NCC/C=C(\N)C(=O)O; ξDab(3-OH) = NCC(O)C(N)C(=O)O; Orn = NCCC[CH](N)C(=O)O; NH(CH2)4NH2 = NCCCCN*

Key:
[1] = Cytotoxicity test (MTS); format: cell-based; details: human; for CC50 at 72 h: MTS; for viability at 72 h: dose of up to 100 μg/mL, read-out: cell viability
Experimental: The cytotoxicity of the Odilomycins A-C was investigated against Human colon adenocarcinoma (HT29) cells and Human normal lung fibroblasts (MRC-5) cells. 200 μL of the cell suspension of HT29 (human colorectal adenocarcinoma) prepared in RPMI 1640+1% L-Glutamine supplemented with 10% (v/v) fetal calf serum and 200 μL of the cell suspension of MRC5 (human lung fibroblast) prepared in Dulbecco's modified Eagle's medium supplemented with 25 mM glucose and 10% (v/v) fetal calf serum were inoculated into 96-well plates.
The inoculating cell number was 800 cells per well for HT29 and 2100 cells per well for MRC-5. The microplates were incubated at 37° C. for 24 h with 5% of CO2.
Twenty four hours later, Odilomycin A, B or C dissolved in water were added for 72 h at a final concentration from 0.78 μg/mL to 100 μg/mL in a fixed volume of water (1% final concentration). […] Experiments were done in triplicate.

[2] = test system: S. aureus Smith ATCC 13709; test: Acute lethal infection in mice; format: in vivo, ICR mice; details: for Survival of all treated mice: S. aureus infection; for Animal deaths Day 0 / Animal deaths Day 1 / Animal deaths Day 3 / Animal deaths Day 4 / Animal deaths Day 5 / Animal deaths Day 2: mice, S. aureus 5 log10 CFU/mouse IP, n=6
Experimental: Female ICR mice ordered from Harlan Laboratories (Indianapolis, Ind.) weighing 19-21 g were used in experiments of acute lethal infection. Mice were fully immunocompetent. Infection was induced by inoculating intraperitoneally in mice a bacterial suspension of S. aureus Smith ATCC 13709. The bacterial challenges (ca 5 log10 CFU/mouse) were given suspended in 0.5 mL of 20% hog mucin. […] Mortality was tracked out to 5 days post challenge. Animals that remained surviving at the end of the study were humanely euthanized.

[3] = test system: P. aeruginosa ATCC 27853; format: cell-based, Pseudomonas aeruginosa; details: ATCC 27853, 24 h
Experimental: (§1) Minimal bactericidal concentrations (MBCs) were established by extending the MIC procedure to the evaluation of bactericidal activity. After 24 hours, 10 μL were drawn from the wells, serially diluted and then spotted onto suitable agar plates. The plates were incubated at 37° C. overnight. […] All the experiments were done in triplicate.

[4] = test system: S. aureus ATCC 25923; format: cell-based, Staphylococcus aureus; details: ATCC 25923
Text: (§2) Vancomycin, rifampicin, kanamycin, gentamicin, ampicillin, ciprofloxacin and tetracycline (Sigma-Aldrich) were provided as standard powders by the manufacturers.

[5] = test system: K. pneumoniae ATCC 43816; format: cell-based, Klebsiella pneumoniae; details: ATCC 43816
Text: as §2

[6] = test system: P. aeruginosa ATCC 27853; test: Acute lethal infection in mice; format: in vivo, BALB/c mice; details: mice, P. aeruginosa 8.6 log10 CFU/mouse IP, n=6
Experimental: Female BALB/c mice ordered from Harlan Laboratories (Indianapolis, Ind.) weighing 19-21 g were used in experiments of acute lethal infection. Mice were fully immunocompetent. Infection was induced by inoculating intraperitoneally in mice a bacterial suspension of P. aeruginosa ATCC 27853. The bacterial challenges (8.6 log10 CFU/mouse) were given suspended in 0.1 mL sterile saline. Treatments were administered once 1 hour after challenge via IV injection (Tobramycin was administered via IP injection immediately after challenge) (Table 13). Mortality was tracked out to 2 days post challenge. Animals that remained surviving at the end of the study were humanely euthanized.

[7] = test system: S. aureus ATCC 13709; test: MBC in presence of human serum; format: cell-based, Staphylococcus aureus; details: for MBC S. aureus ATCC 13709: unit not given (Table 10: μg/mL)
Experimental: as §1
MBCs were also determined in presence of 50% and 95% (v/v) of human serum to assess protein binding.

[8] = HT29 colon adenocarcinoma cells
[9] = MRC-5 normal lung fibroblasts, MRC-5 cells
[10] = Odilomycin A 1.0 mg/kg IV at 1 hr
[11] = Odilomycin A 2.5 mg/kg IV at 1 hr
[12] = Odilomycin A 5.0 mg/kg IV at 1 hr
[13] = Odilomycin A 7.5 mg/kg IV at 1 hr
[14] = Odilomycin A 15 mg/kg IV at 1 hr

N=C(N)NCC/C=C(\NC(=O)C(CCC(O)CN)NC(=O)C(Cc1cnc[nH]1)NC(=O)C1CCCN1C(=O)C(CCCN)NC(=O)CNC(=O)C(NC(=O)C(NC(=O)C(N)CCCCN)C(O)CN)C(O)CN)C(=O)NC(CCC(O)CN)C(=O)NCCCCN (stereo not drawn) [Odilomycin A, Lys-(3-hydroxy-2,4-diaminobutanoic acid)-(3-hydroxy-2,4-diaminobutanoic acid)-Gly-Ornithine-Pro-His-(5-hydroxylysine)-(2,3-dehydroarginine)-(5-hydroxylysine)-(1,4-diaminobutane)] (H-K[ξDab(3-OH)][ξDab(3-OH)]G[Orn]PH[X1][ΔZArg][X1]-{NH(CH2)4NH2}; configuration not given here)
CC50 at 72 h [1, 8]: > 100 µg/mL | viability at 72 h [1, 8]: 100% | CC50 at 72 h [1, 9]: > 100 µg/mL | viability at 72 h [1, 9]: 100% | Survival of all treated mice ([2]; Odilomycin A 2.5 mg/kg IV): survived up to 5 days after infection | Survival of all treated mice ([2]; Odilomycin A 5.0 mg/kg IV): survived up to 5 days after infection | Animal deaths Day 0 [2, 10]: 0 | Animal deaths Day 1 [2, 10]: 0 | Animal deaths Day 3 [2, 10]: 0 | Animal deaths Day 4 [2, 10]: 0 | Animal deaths Day 5 [2, 10]: 0 | Animal deaths Day 0 [2, 11]: 0 | Animal deaths Day 1 [2, 11]: 0 | Animal deaths Day 2 [2, 11]: 0 | Animal deaths Day 3 [2, 11]: 0 | Animal deaths Day 4 [2, 11]: 0 | Animal deaths Day 5 [2, 11]: 0 | Animal deaths Day 0 [2, 12]: 0 | Animal deaths Day 1 [2, 12]: 0 | Animal deaths Day 2 [2, 12]: 0 | Animal deaths Day 3 [2, 12]: 0 | Animal deaths Day 4 [2, 12]: 0 | Animal deaths Day 5 [2, 12]: 0 | MBC [3]: 6.25 µg/mL (≈ 4.82 µM) | MIC antibiotic alone [4]: 0.39 µg/mL (≈ 0.301 µM) | MIC antibiotic alone [5]: 25 µg/mL (≈ 19.3 µM) | Animal deaths Day 0 [6, 13]: 0 | Animal deaths Day 1 [6, 13]: 4 | Animal deaths Day 2 [6, 13]: 1 | Animal deaths Day 0 [6, 14]: 0 | Animal deaths Day 2 [6, 14]: 4 | effect of serum proteins on antibacterial activity ([7]; 50% and 95% (v/v) human serum, S. aureus ATCC 13709): weakly affected | MBC S. aureus ATCC 13709 ([7]; Serum 0 % (v/v)): 0.78 | MBC S. aureus ATCC 13709 ([7]; human serum 50 % (v/v)): 1.56 | MBC S. aureus ATCC 13709 ([7]; human serum 95 % (v/v)): 1.56
